Test results from paper PMC11671014 (PLOS Pathogens, 2024).
Like-named read-outs stand apart in the source and are kept apart here.

Experiments:
[1] = test system: stage V NF54 strain male and female gametocytes; experiment: P. falciparum Dual Gamete Formation Assay (PfDGFA); format: cell-based; settings: Plasmodium falciparum, 48 h
Protocol: Inhibition of the viability of stage V male and female gametocytes was assessed in the P. falciparum Dual Gamete Formation Assay (PfDGFA) as described previously. Briefly, mature stage V NF54 strain gametocytes were incubated with test molecules for 48 h in 384-well plates at 37°C. Gametogenesis was then triggered by cooling the plates to room temperature and addition of xanthurenic acid-containing activating medium (also containing anti-Pfs25 antibody (Mab 4B7) conjugated to a Cy3 fluorophore). Twenty minutes after activation, exflagellation was imaged in all wells of the plate using a x4 objective and automated brightfield microscopy. The plate was then incubated at 20°C for a further 24 h in the dark. Thereafter, female gamete formation was quantified by automated identification of Pfs25-positive cells. Automated counts were transformed to percent inhibition values with reference to positive 100 nM Cabamiquine (DDD498) and negative (DMSO) controls. Data represent the means of multiple independent biological repeats.

[2] = target: Atg7 (autophagy-related protein-7) (Homo sapiens, UniProt O95352); experiment: ATG7 E1-E2 transthiolation HTRF assay (GABARAP); format: biochemical; settings: read-out: ATG7 IC50 HTRF RH-GABARAP
Chain of Atg7 (autophagy-related protein-7) (O95352 whole entry): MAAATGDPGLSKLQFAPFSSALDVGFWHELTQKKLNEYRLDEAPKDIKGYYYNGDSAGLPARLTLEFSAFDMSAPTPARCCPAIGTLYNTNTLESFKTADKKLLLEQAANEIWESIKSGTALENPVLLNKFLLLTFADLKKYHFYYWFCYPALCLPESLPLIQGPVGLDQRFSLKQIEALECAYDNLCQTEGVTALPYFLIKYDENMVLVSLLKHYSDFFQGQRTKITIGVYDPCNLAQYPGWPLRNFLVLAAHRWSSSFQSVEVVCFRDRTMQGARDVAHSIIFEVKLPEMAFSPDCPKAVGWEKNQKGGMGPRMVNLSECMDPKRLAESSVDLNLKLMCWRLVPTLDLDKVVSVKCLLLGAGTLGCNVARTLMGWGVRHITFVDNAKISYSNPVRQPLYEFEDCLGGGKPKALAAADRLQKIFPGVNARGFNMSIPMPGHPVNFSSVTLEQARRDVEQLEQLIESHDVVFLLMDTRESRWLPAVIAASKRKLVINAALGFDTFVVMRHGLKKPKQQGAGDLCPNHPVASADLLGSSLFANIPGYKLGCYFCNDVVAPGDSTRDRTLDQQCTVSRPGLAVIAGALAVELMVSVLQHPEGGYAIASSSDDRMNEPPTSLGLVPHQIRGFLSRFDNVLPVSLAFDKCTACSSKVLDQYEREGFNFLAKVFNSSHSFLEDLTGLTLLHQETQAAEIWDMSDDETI
Description: An Homogeneous Time-Resolved Fluorescence (HTRF) enzyme assay was employed to evaluate compound activity against ATG7 as previously described. In this assay, a Flag-tagged ATG8 homolog (GABA type A receptor-associated protein; GABARAP) is activated by ATG7 and then transthiolated to a GST-tagged E2 (ATG3). The product of the enzyme reaction, Flag-GABARAP-ATG3-GST, is quantified by measuring FRET between Europium-Cryptate labelled monoclonal anti-Flag M2 (FLAG M2-Eu cryptate; Revvity, Cat# 61FG2KLB) and […] (Anti-GST IgG conjugated to SureLight-Allophycocyanin) (Revvity, Cat# AD0059G)). The activation and transthiolation of ubiquitin by UAE, activation and transthiolation of NEDD8 by NAE and activation and transthiolation of SUMO by SAE were all assayed in a similar fashion with appropriately tagged ubiquitin-like proteins and E2 conjugating enzymes as described.

SMILES: CC(C)c1nn([C@@H]2O[C@H](COS(N)(=O)=O)[C@@H](O)[C@H]2O)c2ncnc(N)c12 [ML471, ((2R,3S,4R,5R)-5-(4-amino-3-isopropyl-1H-pyrazolo[3,4-d]pyrimidin-1-yl)-3,4-dihydroxytetrahydrofuran-2-yl)methyl sulfamate]
- IC50 ([1]; female, read-out: Dual gamete formation assay (female) IC50(48h)): 260 nM
- IC50 ([1]; male, read-out: Dual gamete formation assay (male) IC50(48h)): 49 nM
- IC50 [2]: 22 ± 9 nM
